The values that follow come from patent US9796741B2 (Achillion Pharmaceuticals, Inc., priority 2014, dated 2017).

The target in the test is Human factor D (Homo sapiens (Human), UniProt P00746). In words: Human Factor D Assay. The class given is biochemical. As to conditions: human factor D 80 nM, substrate Z-L-Lys-SBzl, DTNB. As for the experimental part:
Human factor D (purified from human serum, Complement Technology, Inc.) at 80 nM final concentration is incubated with test compound at various concentrations for 5 minutes at room temperature in 50 mM Tris, 1M NaCl, pH 7.5. A synthetic substrate Z-L-Lys-SBzl and DTNB (Ellman's reagent) are added to final concentrations of 100 μM each. The increase in color is recorded at OD405 nm in a microplate in kinetic mode over 30 minutes with 30 second time points in a spectrofluorimeter. IC50 values are calculated by non-linear regression from the percentage of inhibition of complement factor D activity as a function of test compound concentration.

Where only a bound is given, the exact number is not on record here.

Sequence of Human factor D (P00746 26-253): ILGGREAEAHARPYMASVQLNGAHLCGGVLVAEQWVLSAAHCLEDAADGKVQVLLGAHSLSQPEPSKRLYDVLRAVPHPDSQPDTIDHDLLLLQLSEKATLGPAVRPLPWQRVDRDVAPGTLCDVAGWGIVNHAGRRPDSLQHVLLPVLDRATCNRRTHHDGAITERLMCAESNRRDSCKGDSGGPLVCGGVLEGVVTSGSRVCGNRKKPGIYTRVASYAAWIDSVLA

Usually IC50 stands for the concentration that gives 50% inhibition. Turning to `CC(=O)c1cn(CC(=O)N2C[C@H](F)C[C@H]2C(=O)Nc2ccc(CNC(=O)OCC3c4ccccc4-c4ccccc43)cc2)c2ccc(-c3ccnnc3)cc12` [Compound 61], the IC50 is above 10 µM. As for `NC(=O)c1nn(CC(=O)N2C[C@H](F)C[C@H]2C(=O)NCc2cc(F)cc(Cl)c2)c2ccc(-c3ccnnc3)cc12` [Compound 62, 1-(2-((2S,4R)-2-(3-chloro-5-fluorobenzylcarbamoyl)-4-fluoropyrrolidin-1-yl)-2-oxoethyl)-5-(pyridazin-4-yl)-1H-indazole-3-carboxamide], the IC50 was below 1 µM. With `CC(=O)c1cn(CC(=O)N2C[C@H](F)C[C@H]2C(=O)Nc2ccccc2N2CCOC2=O)c2ccc(-c3ccnnc3)cc12` [Compound 64, (2S,4R)-1-(2-(3-acetyl-5-(pyridazin-4-yl)-1H-indol-1-yl)acetyl)-4-fluoro-N-(2-(2-oxooxazolidin-3-yl)phenyl)pyrrolidine-2-carboxamide] the figure was above 10 µM. Regarding `NC(=O)c1nn(CC(=O)N2C[C@H](F)C[C@H]2C(=O)Nc2ccccc2N2CCOC2=O)c2ccc(-c3ccnnc3)cc12` [Compound 65, 1-(2-((2S,4R)-4-fluoro-2-(2-(2-oxooxazolidin-3-yl)phenylcarbamoyl)pyrrolidin-1-yl)-2-oxoethyl)-5-(pyridazin-4-yl)-1H-indazole-3-carboxamide], the IC50 is above 10 µM. As for `CC(=O)c1cn(CC(=O)N2C[C@H](F)C[C@H]2C(=O)Nc2cncc(Cl)c2)c2ccc(-c3ccnnc3)cc12` [Compound 66, (2S,4R)-1-(2-(3-acetyl-5-(pyridazin-4-yl)-1H-indol-1-yl)acetyl)-N-(5-chloropyridin-3-yl)-4-fluoropyrrolidine-2-carboxamide], the IC50 was below 1 µM. Consider `CC(=O)c1cn(CC(=O)N2C[C@H](F)C[C@H]2C(=O)Nc2cncc(Br)c2)c2ccc(-c3ccnnc3)cc12` [Compound 68, (2S,4R)-1-(2-(3-acetyl-5-(pyridazin-4-yl)-1H-indol-1-yl)acetyl)-N-(5-bromopyridin-3-yl)-4-fluoropyrrolidine-2-carboxamide], for which the 50% inhibitory concentration (IC50) was below 1 µM.

The compound `NC(=O)c1nn(CC(=O)N2C[C@H](F)C[C@H]2C(=O)Nc2nnc(-c3ccc(Cl)c(Cl)c3)s2)c2ccc(-c3ccnnc3)cc12` [Compound 69, 1-(2-((2S,4R)-2-(5-(3,4-dichlorophenyl)-1,3,4-thiadiazol-2-ylcarbamoyl)-4-fluoropyrrolidin-1-yl)-2-oxoethyl)-5-(pyridazin-4-yl)-1H-indazole-3-carboxamide] yielded a concentration for half-maximal inhibition (IC50) above 10 µM. With `NCc1ccc(NC(=O)[C@@H]2C[C@@H](F)CN2C(=O)Cn2nc(C(N)=O)c3cc(-c4ccnnc4)ccc32)cc1` [Compound 70, 1-(2-((2S,4R)-2-(4-(aminomethyl)phenylcarbamoyl)-4-fluoropyrrolidin-1-yl)-2-oxoethyl)-5-(pyridazin-4-yl)-1H-indazole-3-carboxamide] the figure was above 10 µM; with `Cc1ccnn1-c1ccccc1NC(=O)[C@@H]1C[C@@H](F)CN1C(=O)Cn1nc(C(N)=O)c2cc(-c3ccnnc3)ccc21` [Compound 71, 1-(2-((2S,4R)-4-fluoro-2-(2-(5-methyl-1H-pyrazol-1-yl)phenylcarbamoyl)pyrrolidin-1-yl)-2-oxoethyl)-5-(pyridazin-4-yl)-1H-indazole-3-carboxamide], above 10 µM; with `CC(=O)c1cn(CC(=O)N2C[C@H](F)C[C@H]2C(=O)Nc2ccccc2-n2nccc2C)c2ccc(-c3ccnnc3)cc12` [Compound 72, (2S,4R)-1-(2-(3-acetyl-5-(pyridazin-4-yl)-1H-indol-1-yl)acetyl)-4-fluoro-N-(2-(5-methyl-1H-pyrazol-1-yl)phenyl)pyrrolidine-2-carboxamide], above 10 µM. With `NC(=O)c1nn(CC(=O)N2C[C@H](F)C[C@H]2C(=O)Nc2cccc(OCc3ccccc3)n2)c2ccc(-c3ccnnc3)cc12` [Compound 73, 1-(2-((2S,4R)-2-(6-(benzyloxy)pyridin-2-ylcarbamoyl)-4-fluoropyrrolidin-1-yl)-2-oxoethyl)-5-(pyridazin-4-yl)-1H-indazole-3-carboxamide], the half-maximal inhibitory concentration (IC50) was above 10 µM.

Turning to `CC(=O)c1cn(CC(=O)N2C[C@H](F)C[C@H]2C(=O)N[C@H]2CCCC[C@@H]2OCc2ccccc2)c2ccc(-c3ccnnc3)cc12` [Compound 74, (2S,4R)-1-(2-(3-acetyl-5-(pyridazin-4-yl)-1H-indol-1-yl)acetyl)-N-((1S,2S)-2-(benzyloxy)cyclohexyl)-4-fluoropyrrolidine-2-carboxamide], the IC50 is above 10 µM. In turn, `CC(=O)c1cn(CC(=O)N2C[C@H](F)C[C@H]2C(=O)Nc2ccc3c(c2)OC(C)(C)C3)c2ccc(-c3ccnnc3)cc12` [Compound 75, (2S,4R)-1-(2-(3-acetyl-5-(pyridazin-4-yl)-1H-indol-1-yl)acetyl)-N-(2,2-dimethyl-2,3-dihydrobenzofuran-6-yl)-4-fluoropyrrolidine-2-carboxamide] came in with a half-maximal inhibitory concentration (IC50) below 1 µM. Turning to `CC1(C)Cc2ccc(NC(=O)[C@@H]3C[C@@H](F)CN3C(=O)Cn3nc(C(N)=O)c4cc(-c5ccnnc5)ccc43)cc2O1` [Compound 76, 1-(2-((2S,4R)-2-(2,2-dimethyl-2,3-dihydrobenzofuran-6-ylcarbamoyl)-4-fluoropyrrolidin-1-yl)-2-oxoethyl)-5-(pyridazin-4-yl)-1H-indazole-3-carboxamide], the IC50 was below 1 µM. Take `CC(=O)c1cn(CC(=O)N2C[C@H](F)C[C@H]2C(=O)N[C@H]2CCC[C@@H]2OCc2ccccc2)c2ccc(-c3ccnnc3)cc12` [Compound 77, (2S,4R)-1-(2-(3-acetyl-5-(pyridazin-4-yl)-1H-indol-1-yl)acetyl)-N-((1S,2S)-2-(benzyloxy)cyclopentyl)-4-fluoropyrrolidine-2-carboxamide]: the concentration for half-maximal inhibition (IC50) was above 10 µM.

Compound `NC(=O)c1nn(CC(=O)N2C[C@H](F)C[C@H]2C(=O)N[C@H]2CCCC[C@@H]2OCc2ccccc2)c2ccc(-c3ccnnc3)cc12` [Compound 78] came in with a half-inhibitory concentration (IC50) above 10 µM. Compound `CNC(=O)[C@@H]1C[C@@H](F)CN1C(=O)Cn1nc(C(N)=O)c2cc(-c3ccnnc3)ccc21` [Compound 79, 1-(2-((2S,4R)-4-fluoro-2-(methylcarbamoyl)pyrrolidin-1-yl)-2-oxoethyl)-5-(pyridazin-4-yl)-1H-indazole-3-carboxamide] showed a 50% inhibitory concentration (IC50) above 10 µM. Compound `COc1ncc(-c2ccc3c(c2)c(C(C)=O)cn3CC(=O)N2[C@@H]3C[C@@H]3C[C@H]2C(=O)Nc2cccc(-c3ccccc3Cl)c2F)cn1` [Compound 80, (1R,3S,5R)-2-(2-(3-acetyl-5-(2-methoxypyrimidin-5-yl)-1H-indol-1-yl)acetyl)-N-(2′-chloro-2-fluorobiphenyl-3-yl)-2-azabicyclo[3.1.0] hexane-3-carboxamide] had an IC50 below 1 µM.

In turn, `COc1ncc(-c2ccc3c(c2)c(C(C)=O)cn3CC(=O)N2[C@@H]3C[C@@H]3C[C@H]2C(=O)Nc2cccc(Br)n2)cn1` [Compound 81, (1R,3S,5R)-2-(2-(3-acetyl-5-(2-methoxypyrimidin-5-yl)-1H-indol-1-yl)acetyl)-N-(6-bromopyridin-2-yl)-2-azabicyclo[3.1.0] hexane-3-carboxamide] registered an IC50 below 1 µM.

`CC(=O)c1cn(CC(=O)N2C[C@H](F)C[C@H]2C(=O)Nc2cccc(Br)n2)c2ccc(-c3cnc(C#N)nc3)cc12` [Compound 82, (2S,4R)-1-(2-(3-acetyl-5-(2-cyanopyrimidin-5-yl)-1H-indol-1-yl)acetyl)-N-(6-bromopyridin-2-yl)-4-fluoropyrrolidine-2-carboxamide] displayed a half-inhibitory concentration (IC50) below 1 µM.

Compound `CC(=O)c1cn(CC(=O)N2C[C@H](F)C[C@H]2C(=O)Nc2cccc(Br)n2)c2ccc(-c3cnc(F)nc3)cc12` [Compound 83, (2S,4R)-1-(2-(3-acetyl-5-(2-fluoropyrimidin-5-yl)-1H-indol-1-yl)acetyl)-N-(6-bromopyridin-2-yl)-4-fluoropyrrolidine-2-carboxamide] registered a half-maximal inhibitory concentration (IC50) below 1 µM. Regarding `CC(=O)c1cn(CC(=O)N2C[C@H](F)C[C@H]2C(=O)Nc2cccc(Br)n2)c2ccc(-c3cnc(C)nc3)cc12` [Compound 84, (2S,4R)-1-(2-(3-acetyl-5-(2-methylpyrimidin-5-yl)-1H-indol-1-yl)acetyl)-N-(6-bromopyridin-2-yl)-4-fluoropyrrolidine-2-carboxamide], the half-inhibitory concentration (IC50) was below 1 µM.

In turn, `CC(=O)c1cn(CC(=O)N2C[C@H](F)C[C@H]2C(=O)Nc2ccc(CN)cc2)c2ccc(-c3ccnnc3)cc12` [Compound 85, (2S,4R)-1-(2-(3-acetyl-5-(pyridazin-4-yl)-1H-indol-1-yl)acetyl)-N-(4-(aminomethyl)phenyl)-4-fluoropyrrolidine-2-carboxamide] showed an IC50 above 10 µM. Under `NC(=O)c1nn(CC(=O)N2C[C@H](F)C[C@H]2C(=O)Nc2ccc3cn[nH]c3c2)c2ccc(-c3ccnnc3)cc12` [Compound 86, 1-(2-((2S,4R)-2-(1H-indazol-6-ylcarbamoyl)-4-fluoropyrrolidin-1-yl)-2-oxoethyl)-5-(pyridazin-4-yl)-1H-indazole-3-carboxamide] stands above 10 µM. In the case of `CC(=O)c1cn(CC(=O)N2C[C@H](F)C[C@H]2C(=O)Nc2cncc(Cl)n2)c2ccc(-c3ccnnc3)cc12` [Compound 88, (2S,4R)-1-(2-(3-acetyl-5-(pyridazin-4-yl)-1H-indol-1-yl)acetyl)-N-(6-chloropyrazin-2-yl)-4-fluoropyrrolidine-2-carboxamide], the concentration for half-maximal inhibition (IC50) was below 1 µM.

The compound `NC(=O)c1nn(CC(=O)N2C[C@H](F)C[C@H]2C(=O)Nc2cncc(Cl)n2)c2ccc(-c3ccnnc3)cc12` [Compound 89, 1-(2-((2S,4R)-2-(6-chloropyrazin-2-ylcarbamoyl)-4-fluoropyrrolidin-1-yl)-2-oxoethyl)-5-(pyridazin-4-yl)-1H-indazole-3-carboxamide] returned an IC50 below 1 µM.
